Laboratory results taken from the supplement of paper PMC6965134.
± gives the standard deviation of the averaged measurements. Blank lines part the entries; values can stand above or below the compound they belong to.

Test: TIMS collisional cross section (CCS, N2) of the lipid ion; higher = larger ion cross section
Details: ionization mode: negative, one isomer drawn
Experimental: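 Lipid extracts of human plasma (NIST SRM 1950), mouse liver or HeLa cells were separated by nanoflow C18 LC (30 min gradient) and analysed by TIMS-PASEF on a timsTOF Pro. Ion mobility was calibrated with the Agilent tuning mix (negative mode ions) and converted to collisional cross sections (Mason–Schamp, N2).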

[1] = sample type: Mouse Liver, ion (formula + adduct): [C47H82NO8P+HCOO] 1-
[2] = sample type: Human plasma, ion (formula + adduct): [C46H84NO8P+HCOO] 1-
[3] = sample type: Mouse Liver, ion (formula + adduct): [C46H86NO8P+HCOO] 1-
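Further: lipids from MTBE extraction, five replicate injections per sample, 100 ms TIMS ramp spanning 0.6–1.95 Vs/cm², lipid identity assigned from PASEF MS/MS spectra.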

TIMS collisional cross section (sample type: Human plasma, ion (formula + adduct): [C43H84NO8P+HCOO] 1-): 294.5 Å²
Structure (SMILES): CCCCCCCC/C=C\CCCCCCCC(=O)O[C@H](COC(=O)CCCCCCCCCCCCCCCC)COP(=O)([O-])OCC[N+](C)(C)C [PC 17:0_18:1]

TIMS collisional cross section (sample type: Mouse Liver, ion (formula + adduct): [C43H82NO8P+HCOO] 1-): 293.3 Å²
Structure (SMILES): CCCCC/C=C\C/C=C\CCCCCCCC(=O)O[C@H](COC(=O)CCCCCCCCCCCCCCCC)COP(=O)([O-])OCC[N+](C)(C)C [PC 17:0_18:2]

TIMS collisional cross section (sample type: Mouse Liver, ion (formula + adduct): [C45H82NO8P+HCOO] 1-): 297.2 Å²
Structure (SMILES): CCCCC/C=C\C/C=C\C/C=C\C/C=C\CCCC(=O)O[C@H](COC(=O)CCCCCCCCCCCCCCCC)COP(=O)([O-])OCC[N+](C)(C)C [PC 17:0_20:4]

TIMS collisional cross section (sample type: Human plasma, ion (formula + adduct): [C46H82NO8P+HCOO] 1-): 301.2 Å²
Structure (SMILES): CC/C=C\C/C=C\C/C=C\C/C=C\C/C=C\CCCC(=O)O[C@H](COC(=O)CCCCCCCCCCCCCCCCC)COP(=O)([O-])OCC[N+](C)(C)C [PC 18:0@_20:5]

TIMS collisional cross section (sample type: Human plasma, ion (formula + adduct): [C44H84NO8P+HCOO] 1-): 296.5 ± 0.35 Å²
TIMS collisional cross section (sample type: Mouse Liver, ion (formula + adduct): [C44H84NO8P+HCOO] 1-): 295.9 ± 0.17 Å²
Structure (SMILES): CCCCC/C=C\C=C/CCCCCCCCC(=O)O[C@H](COC(=O)CCCCCCCCCCCCCCCCC)COP(=O)([O-])OCC[N+](C)(C)C [PC 18:0_18:2]

TIMS collisional cross section (sample type: Mouse Liver, ion (formula + adduct): [C46H90NO8P+HCOO] 1-): 302.3 Å²
Structure (SMILES): CCCCCCCC/C=C\CCCCCCCCCC(=O)O[C@H](COC(=O)CCCCCCCCCCCCCCCCC)COP(=O)([O-])OCC[N+](C)(C)C [PC 18:0_20:1]

TIMS collisional cross section [3]: 300.6 Å²
Structure (SMILES): CCCCC/C=C\C/C=C\CCCC/C=C\CCCC(=O)O[C@H](COC(=O)CCCCCCCCCCCCCCCCC)COP(=O)([O-])OCC[N+](C)(C)C [PC 18:0_20:3@]

TIMS collisional cross section (sample type: Human plasma, ion (formula + adduct): [C46H86NO8P+HCOO] 1-): 300.6 Å²
TIMS collisional cross section [3]: 300 Å²
Structure (SMILES): CCCCC/C=C\C/C=C\CCCC/C=C\CCCC(=O)O[C@H](COC(=O)CCCCCCCCCCCCCCCCC)COP(=O)([O-])OCC[N+](C)(C)C [PC 18:0_20:3]

More lines, now with the values behind:

Structure (SMILES): CC/C=C\C/C=C\C/C=C\C/C=C\C/C=C\C/C=C\CCC(=O)O[C@H](COC(=O)CCCCCCCCCCCCCCCC)COP(=O)([O-])OCC[N+](C)(C)C [PC 17:0@_22:6]
TIMS collisional cross section (sample type: Human plasma, ion (formula + adduct): [C47H82NO8P+HCOO] 1-): 301.2 Å²
TIMS collisional cross section [1]: 301.2 Å²

Structure (SMILES): CC/C=C\C/C=C\C/C=C\C/C=C\C/C=C\C/C=C\CCC(=O)O[C@H](COC(=O)CCCCCCCCCCCCCCCC)COP(=O)([O-])OCC[N+](C)(C)C [PC 17:0_22:6]
TIMS collisional cross section [1]: 300.6 Å²

Structure (SMILES): C=CC(=O)O[C@H](COC(=O)CCCCCCCCCCCCCCCCC)COP(=O)([O-])OCC[N+](C)(C)C [PC 18:0@_3:1]
TIMS collisional cross section (sample type: Mouse Liver, ion (formula + adduct): [C29H56NO8P+OAcO] 1-): 258.4 Å²

Structure (SMILES): CCCCC/C=C\C/C=C\C/C=C\C/C=C\CCCC(=O)O[C@H](COC(=O)CCCCCCCCCCCCCCCCC)COP(=O)([O-])OCC[N+](C)(C)C [PC 18:0@_20:4]
TIMS collisional cross section [2]: 297.2 Å²

Structure (SMILES): CC/C=C\C/C=C\C/C=C\C/C=C\C/C=C\C/C=C\CCC(=O)O[C@H](COC(=O)CCCCCCCCCCCCCCCCC)COP(=O)([O-])OCC[N+](C)(C)C [PC 18:0@_22:6]
TIMS collisional cross section (sample type: Human plasma, ion (formula + adduct): [C48H84NO8P+HCOO] 1-): 303.4 Å²

Structure (SMILES): C=CC(=O)O[C@H](COC(=O)CCCCCCCCCCCCCCCCC)COP(=O)([O-])OCC[N+](C)(C)C [PC 18:0_3:1@]
TIMS collisional cross section (sample type: Mouse Liver, ion (formula + adduct): [C29H56NO8P+AcO] 1-): 260.8 Å²
TIMS collisional cross section (sample type: Mouse Liver, ion (formula + adduct): [C29H56NO8P+HCOO] 1-): 243.4 Å²

Structure (SMILES): C=CC(=O)O[C@H](COC(=O)CCCCCCCCCCCCCCCCC)COP(=O)([O-])OCC[N+](C)(C)C [PC 18:0_3:1]
TIMS collisional cross section (sample type: Human plasma, ion (formula + adduct): [C29H56NO8P+AcO] 1-): 252.1 Å²

Structure (SMILES): CCCCCCCCCCCCCCCCCC(=O)OC[C@H](COP(=O)([O-])OCC[N+](C)(C)C)OC(=O)CCCCCCCCCCCCCCCCC [PC 18:0_18:0]
TIMS collisional cross section (sample type: Mouse Liver, ion (formula + adduct): [C44H88NO8P+HCOO] 1-): 298.4 Å²

Structure (SMILES): CCCCC/C=C\C/C=C\C/C=C\C/C=C\CCCC(=O)O[C@H](COC(=O)CCCCCCCCCCCCCCCCC)COP(=O)([O-])OCC[N+](C)(C)C [PC 18:0_20:4]
TIMS collisional cross section [2]: 299.5 Å²
TIMS collisional cross section (sample type: Mouse Liver, ion (formula + adduct): [C46H84NO8P+HCOO] 1-): 299.5 ± 0.85 Å²
TIMS collisional cross section (sample type: Mouse Liver, ion (formula + adduct): [C46H84NO8P-CH3] 1-): 282.4 Å²
